The values that follow are results of earlier work, collected in publication PMC4263154 (Journal of Clinical Pharmacology, 2013).

Assay in data set [1]: not given
The source holds these as a separate data set.

“Also recorded” adds a separate entry of the source. Like-named read-outs stand apart in the source and are kept apart here.

Regarding `CC(=O)N[C@@H](C)c1cc(Cl)ccc1C1CCN(C(=O)[C@@H]2CN(C(C)(C)C)C[C@H]2c2ccc(F)cc2F)CC1` [MK-0493], the “effect on body weight and energy intake” value (Phase 1 and 2 clinical trials) is given as “failed to demonstrate effect; also recorded: lack of efficacy”. The erectogenic effect result (clinical trial) is listed as “failed to demonstrate the same effect”.
Consider melanotan-II, for which the results for the “effect on food intake or energy expenditure” value in the data set on MC4R (MC4R knock-out mice) and in the data set on MC4R (wild-type mice) were “no effect” and “did exert these effects”, respectively. The sexual arousal result in data set [1] (females with sexual behavior disorders) was “arousal”. Further, the erectogenic activity entry in data set [1] (males with erectile dysfunction) is “erectogenic activity”.
